Like-named read-outs stand apart in the source and are kept apart here.
Legend:
[1] = tested on: Wnt-responsive Sp5-Luc reporter in SW480 colon carcinoma cells; assay: Wnt activity screening assay (Sp5-Luc reporter); type: cell-based; conditions: Homo sapiens
Source text: The screening assay for Wnt activity is described as follows. Reporter cell lines can be generated by stably transducing cancer cell lines (e.g., colon cancer) or primary cells (e.g., IEC-6 intestinal cells) with a lentiviral construct that includes a Wnt-responsive promoter driving expression of the firefly luciferase gene.
SW480 colon carcinoma cells were transduced with a lentiviral vector expressing luciferase with a human Sp5 promoter consisting of a sequence of eight TCF/LEF binding sites. […] These stably transduced SW480 cells were expanded in cell culture and used for all further screening activities. […] For Sp5-Luc reporter gene assays, the cells were plated at 4,000 cells/well in 384-well plates with a DMEM medium containing 1% fetal bovine serum, and 1% Penicillin-Streptomycin and incubated for 36 to 48 hours at 37° C. and 5% CO2. Following incubation, 15 μL of BriteLite Plus luminescence reagent (Perkin Elmer) was added to each well of the 384-well assay plates. The plates were placed on an orbital shaker for 2 min and then luminescence was quantified using the Envision (Perkin Elmer) plate reader.

[2] = tested on: SW480 colorectal cancer cells; assay: Gene expression qRT-PCR in SW480 cells; type: cell-based; conditions: Homo sapiens
Description: SW480 colorectal cancer cells were plated at 1×10^4 cells per well into 96-well plates (Olympus). Compounds were diluted in cell culture media and added to the cells at a final concentration of 3 μM. Cells were treated with vehicle (DMSO) and compounds for 24 hours. N=3 biological replicates per conditions.
Following treatment, cells were lysed, and cDNA was generated using the Fastlane Cell cDNA Kit (Qiagen).
384-well PCR plates with pre-spotted primers for CLK1, CLK2, CLK3, DVL2, LRP5, SRSF1, SRSF3, SRSF4, SRSF5, TCF7, TCF7L2 were ordered from Bio-Rad. The generated cDNA, along with a SYBR Green qRT-PCR master mix (SsoAdvanced™ Universal SYBR® Green Supermix, Bio-Rad) was added to the PCR plates.
qRT-PCR was performed on the plates using a CFX384 Touch™ Real-Time PCR Detection System (Bio-Rad) with the manufacturer's recommended thermal cycling conditions.
Data from the qRT-PCR assay was normalized to the GAPDH and HPRT1 housekeeping genes and set gene expression fold change was set relative to vehicle-treated cells using the ΔΔCt analysis method.

CLK3 = CLK3 (Homo sapiens, UniProt P49761); assay: CLK3 kinase activity assay (Z-lyte, Ser/Thr 18 peptide)
CLK3, sequence (P49761 whole entry): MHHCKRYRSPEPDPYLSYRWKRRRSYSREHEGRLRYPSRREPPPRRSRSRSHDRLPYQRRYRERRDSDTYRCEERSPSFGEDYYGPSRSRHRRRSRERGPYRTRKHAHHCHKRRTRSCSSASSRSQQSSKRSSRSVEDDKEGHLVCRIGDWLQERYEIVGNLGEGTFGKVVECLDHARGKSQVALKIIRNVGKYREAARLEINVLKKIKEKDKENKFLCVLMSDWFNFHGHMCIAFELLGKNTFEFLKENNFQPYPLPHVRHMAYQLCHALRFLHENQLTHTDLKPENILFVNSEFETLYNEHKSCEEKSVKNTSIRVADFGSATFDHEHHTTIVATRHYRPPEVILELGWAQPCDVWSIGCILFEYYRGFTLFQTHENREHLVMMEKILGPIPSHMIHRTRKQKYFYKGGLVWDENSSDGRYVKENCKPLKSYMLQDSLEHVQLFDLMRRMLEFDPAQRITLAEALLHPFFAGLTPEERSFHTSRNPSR

CLK2 = target: T1, CLK2 (Homo sapiens, UniProt P49760); assay: CLK2 kinase activity assay (Z-lyte, Ser/Thr 6 peptide); type: biochemical
T1 construct: purchased Thermo Fisher (Life Technologies), Z'-LYTE Kinase Assay Kits
T1 sequence (P49760 whole entry): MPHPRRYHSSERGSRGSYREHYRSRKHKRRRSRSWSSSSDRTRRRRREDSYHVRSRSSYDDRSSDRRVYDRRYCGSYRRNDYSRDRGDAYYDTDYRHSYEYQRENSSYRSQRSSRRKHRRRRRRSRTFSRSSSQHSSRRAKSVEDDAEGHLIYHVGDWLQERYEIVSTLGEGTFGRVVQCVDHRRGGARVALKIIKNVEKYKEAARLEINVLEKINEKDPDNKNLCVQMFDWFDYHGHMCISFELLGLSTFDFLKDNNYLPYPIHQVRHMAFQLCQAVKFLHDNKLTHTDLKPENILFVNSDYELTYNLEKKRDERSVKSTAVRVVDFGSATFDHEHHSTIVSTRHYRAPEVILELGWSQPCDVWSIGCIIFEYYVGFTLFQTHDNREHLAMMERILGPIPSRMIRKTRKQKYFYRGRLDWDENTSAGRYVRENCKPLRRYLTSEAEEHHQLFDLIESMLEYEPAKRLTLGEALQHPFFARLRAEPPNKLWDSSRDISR
Description: All reactions were performed in duplicate.

[3] = SW480 Sp5-Luc reporter, 36 to 48 hours, read-out: EC50
[4] = SW480, 3 μM, 24 hours, relative to DMSO, read-out: gene expression fold change CLK1
[5] = SW480, 3 μM, 24 hours, relative to DMSO, read-out: gene expression fold change CLK2
[6] = SW480, 3 μM, 24 hours, relative to DMSO, read-out: gene expression fold change CLK3
[7] = SW480, 3 μM, 24 hours, relative to DMSO, read-out: gene expression fold change DVL2
[8] = SW480, 3 μM, 24 hours, relative to DMSO, read-out: gene expression fold change LRP5
[9] = SW480, 3 μM, 24 hours, relative to DMSO, read-out: gene expression fold change SRSF1
[10] = SW480, 3 μM, 24 hours, relative to DMSO, read-out: gene expression fold change SRSF3
[11] = SW480, 3 μM, 24 hours, relative to DMSO, read-out: gene expression fold change SRSF4
[12] = SW480, 3 μM, 24 hours, relative to DMSO, read-out: gene expression fold change SRSF5
[13] = SW480, 3 μM, 24 hours, relative to DMSO, read-out: gene expression fold change TCF7
[14] = SW480, 3 μM, 24 hours, relative to DMSO, read-out: gene expression fold change TCF7L2
[15] = recombinant CLK2 kinase, ATP 60 μM, read-out: EC50

Cc1n[nH]c2ccc(-c3cncc(OC[C@H](N)Cc4ccccc4)n3)cc12 [Compound 2]
EC50 [1, 3]: 253 nM
fold induction at 3 µM [2, 4]: 0.01
fold induction at 3 µM [2, 5]: 0.05
fold induction at 3 µM [2, 6]: 0.02
fold induction at 3 µM [2, 7]: 0.05
fold induction at 3 µM [2, 8]: 0.07
fold induction at 3 µM [2, 9]: 0.13
fold induction at 3 µM [2, 10]: 0.05
fold induction at 3 µM [2, 11]: 0.02
fold induction at 3 µM [2, 12]: 0.14
fold induction at 3 µM [2, 13]: 0.32
fold induction at 3 µM [2, 14]: 0.13

Cc1n[nH]c2ccc(-c3cncc(OC[C@@H](N)Cc4ccccc4)c3)cc12 [Compound 3]
EC50 [1, 3]: 356 nM

CN(C)CCN(C)c1ccc(NC(=O)c2n[nH]c3ccc(-c4cncc(CN5CCCCC5)c4)cc23)cn1 [Compound 6]
EC50 (CLK3): 17 nM
EC50 [1, 3]: 65 nM
fold induction at 3 µM [2, 4]: 0.04
fold induction at 3 µM [2, 5]: 0.06
fold induction at 3 µM [2, 6]: 0.03
fold induction at 3 µM [2, 7]: 0.06
fold induction at 3 µM [2, 8]: 0.05
fold induction at 3 µM [2, 9]: 0.1
fold induction at 3 µM [2, 10]: 0.04
fold induction at 3 µM [2, 11]: 0.01
fold induction at 3 µM [2, 12]: 0.1
fold induction at 3 µM [2, 13]: 0.31
fold induction at 3 µM [2, 14]: 0.07

Cc1ccc(-c2cncc3[nH]c(-c4n[nH]c5ccc(-c6cncc(N)c6)nc45)nc23)s1 [Compound 7]
EC50 (CLK3): 10 nM
EC50 (CLK2; [15]): 1 nM
EC50 [1, 3]: 41 nM

Cc1ncc(-c2ccc3[nH]nc(-c4nc5c(-c6cc(F)cc(NCCN(C)C)c6)ccnc5[nH]4)c3n2)n1C [Compound 8]
EC50 (CLK3): 22 nM
EC50 (CLK2; [15]): 1 nM
EC50 [1, 3]: 623 nM

CNc1nc(NCc2ncccn2)c2c(-c3ccc4ncccc4c3)c[nH]c2n1 [Compound 9]
EC50 ([1]; SW480): 92 nM
fold induction at 3 µM ([2]; SW480, 24 h, read-out: gene expression fold change CLK1): 0.16
fold induction at 3 µM ([2]; SW480, 24 h, read-out: gene expression fold change CLK2): 0.06
fold induction at 3 µM ([2]; SW480, 24 h, read-out: gene expression fold change CLK3): 0.51
fold induction at 3 µM ([2]; SW480, 24 h, read-out: gene expression fold change DVL2): 0.21
fold induction at 3 µM ([2]; SW480, 24 h, read-out: gene expression fold change LRP5): 0.18
fold induction at 3 µM ([2]; SW480, 24 h, read-out: gene expression fold change SRSF1): 1.91
fold induction at 3 µM ([2]; SW480, 24 h, read-out: gene expression fold change SRSF3): 0.62
fold induction at 3 µM ([2]; SW480, 24 h, read-out: gene expression fold change SRSF4): 0.62
fold induction at 3 µM ([2]; SW480, 24 h, read-out: gene expression fold change SRSF5): 0.56
fold induction at 3 µM ([2]; SW480, 24 h, read-out: gene expression fold change TCF7): 0.2
fold induction at 3 µM ([2]; SW480, 24 h, read-out: gene expression fold change TCF7L2): 0.29

Cn1ncc(-c2ccc3cnc(NC(=O)c4ccnc(N5CCOCC5)c4)cc3c2)c1CN1CCOCC1 [Compound 13]
EC50 (CLK3): 10 nM
EC50 (CLK2; [15]): 1 nM

Cn1cncc1-c1ccc2cnc(NC(=O)c3ccc4c(c3)CNC4)cc2c1 [Compound 15]
EC50 (CLK3): 30 nM
EC50 (CLK2; [15]): 1 nM

Cc1ncc(C(=O)Nc2cc3cc(-c4cnc(C)n4C)ccc3cn2)s1 [Compound 16]
EC50 (CLK2; [15]): 1 nM
EC50 [1, 3]: 165 nM
fold induction at 3 µM [2, 4]: 0.22
fold induction at 3 µM [2, 5]: 0.06
fold induction at 3 µM [2, 6]: 0.59
fold induction at 3 µM [2, 7]: 0.18
fold induction at 3 µM [2, 8]: 0.17
fold induction at 3 µM [2, 9]: 1.92
fold induction at 3 µM [2, 10]: 0.61
fold induction at 3 µM [2, 11]: 0.66
fold induction at 3 µM [2, 12]: 0.54
fold induction at 3 µM [2, 13]: 0.21
fold induction at 3 µM [2, 14]: 0.14

CC(C)Oc1ccc(C(=O)Nc2cc3cc(-c4cnc5n4CCNC5)ccc3cn2)cc1 [Compound 17]
EC50 (CLK3): 161 nM
EC50 (CLK2; [15]): 2 nM

CN1CCN(c2ccc(C(=O)Nc3cc4cc(-c5nncs5)ccc4cn3)cn2)CC1 [Compound 18]
EC50 (CLK3): 54 nM
EC50 (CLK2; [15]): 2 nM

Cc1nnc(-c2ccc3cnc(NC(=O)c4ccnc(SC5CCN(C)CC5)c4)cc3c2)s1 [Compound 19]
EC50 (CLK3): 14 nM
EC50 (CLK2; [15]): 2 nM

O=C(Nc1cc2cc(-c3cncc(NCC4(F)CNC4)n3)ccc2cn1)C1CC1 [Compound 21]
EC50 (CLK2; [15]): 1 nM
EC50 [1, 3]: 151 nM
fold induction at 3 µM [2, 4]: 0.02
fold induction at 3 µM [2, 5]: 0.03
fold induction at 3 µM [2, 6]: 0.05
fold induction at 3 µM [2, 7]: 0.15
fold induction at 3 µM [2, 8]: 0.07
fold induction at 3 µM [2, 9]: 0.22
fold induction at 3 µM [2, 10]: 0.07
fold induction at 3 µM [2, 11]: 0.03
fold induction at 3 µM [2, 12]: 0.16
fold induction at 3 µM [2, 13]: 0.48
fold induction at 3 µM [2, 14]: 0.1

CN1CCC(n2cc(C(=O)Nc3cc4cc(-c5cncc6[nH]ccc56)ccc4cn3)cn2)CC1 [Compound 23]
EC50 (CLK3): 9 nM
EC50 [1, 3]: 26 nM
fold induction at 3 µM [2, 4]: 0.02
fold induction at 3 µM [2, 5]: 0.03
fold induction at 3 µM [2, 6]: 0.02
fold induction at 3 µM [2, 7]: 0.11
fold induction at 3 µM [2, 8]: 0.04
fold induction at 3 µM [2, 9]: 0.3
fold induction at 3 µM [2, 10]: 0.09
fold induction at 3 µM [2, 11]: 0.02
fold induction at 3 µM [2, 12]: 0.24
fold induction at 3 µM [2, 13]: 0.25
fold induction at 3 µM [2, 14]: 0.12

Cc1ccc([N+](=O)[O-])cc1S(=O)(=O)N(C)/N=C/c1cnc2ccc(Br)cn12 [Compound 26]
EC50 (CLK3): 15 nM
EC50 (CLK2): 1 nM
EC50 ([1]; SW480): 39 nM

Cc1n[nH]c2ccc(-c3cncc(OC4CCNCC4(F)F)n3)cc12 (centres unmarked) [Compound 28]
EC50 (CLK3): 313 nM
EC50 (CLK2; [15]): 3 nM
EC50 [1, 3]: 369 nM

Fc1cccc(-c2cncc3[nH]c(-c4n[nH]cc4/C=C/c4cccnc4)nc23)c1 [Compound 29]
EC50 (CLK3): 62 nM
EC50 (CLK2; [15]): 5 nM
EC50 [1, 3]: 14 nM

NC(=O)c1ccc(NC(=O)c2n[nH]c3ccc(-c4cncc(CN5CCCCC5)c4)cc23)cn1 [Compound 30]
EC50 [1, 3]: 13 nM

CN1CCN(c2ccc(NC(=O)c3n[nH]c4ccc(-c5cncc(CN6CCC(F)(F)C6)c5)cc34)cn2)CC1 [Compound 31]
EC50 [1, 3]: 4 nM

CN1CCC(Oc2ccc(NC(=O)c3n[nH]c4ccc(-c5cncc(N)c5)cc34)cc2)CC1 [Compound 32]
EC50 (CLK3): 13 nM
EC50 (CLK2; [15]): 1 nM
EC50 [1, 3]: 85 nM

Nc1ncc(NC(=O)c2n[nH]c3ccc(-c4cncc(CN5CCCCC5)c4)cc23)cn1 [Compound 33]
EC50 [1, 3]: 30 nM

CN(C)C(=O)Nc1cncc(-c2ccc3[nH]nc(C(=O)Nc4cccnc4)c3c2)c1 [Compound 34]
EC50 [1, 3]: 176 nM

CN1CCC(Oc2cc(NC(=O)c3n[nH]c4cc(F)c(-c5cnn(C)c5)cc34)ccn2)CC1 [Compound 35]
EC50 (CLK3): 20 nM
EC50 (CLK2; [15]): 1 nM

CN1CCN(Cc2ccc(NC(=O)c3n[nH]c4ccc(-c5cccnc5)cc34)cn2)CC1 [Compound 36]
EC50 [1, 3]: 37 nM

COc1ccc(NC(=O)c2n[nH]c3ccc(-c4cncc(CO)c4)cc23)cn1 [Compound 37]
EC50 [1, 3]: 97 nM

CN(C)Cc1cncc(-c2ccc3[nH]nc(-c4nc5c(-c6cccc(F)c6)cncc5[nH]4)c3c2)c1 [Compound 38]
EC50 (CLK3): 7 nM
EC50 (CLK2; [15]): 1 nM
EC50 [1, 3]: 13 nM

CC(C)CC(=O)Nc1cncc(-c2ccc3[nH]nc(-c4nc5c(-c6cc(F)cc(OCCN(C)C)c6)cncc5[nH]4)c3c2)c1 [Compound 39]
EC50 (CLK3): 10 nM
EC50 (CLK2; [15]): 4 nM
EC50 [1, 3]: 199 nM

CCC(=O)Nc1cncc(-c2ccc3[nH]nc(-c4nc5c(-c6cccnc6)cncc5[nH]4)c3c2)c1 [Compound 40]
EC50 (CLK3): 14 nM
EC50 (CLK2; [15]): 3 nM
EC50 [1, 3]: 13 nM

CN1CCN(c2nccc3[nH]c(-c4n[nH]c5cc(F)c(-c6cnn(C)c6)cc45)nc23)CC1 [Compound 42]
EC50 [1, 3]: 86 nM

O=C(Nc1cc2cc(-c3cnn4c3CN(CCF)CC4)ccc2cn1)c1ccnc(OC2CNC2)c1 [Compound 79]
EC50 (CLK3): 44.3 nM
EC50 (CLK2): 4.4 nM

Reference: patent publication US20220062240A1, “METHODS OF TREATING CANCER USING A CLK INHIBITOR” (BioSplice Therapeutics, Inc., priority 2018, published 2022)
